This note sets out measurements from PubChem BioAssay AID330 (DTP/NCI, 2004).

Values joined by “and” are separate entries in the source; they are usually repeats but may differ in a detail not shown here. Equal entries are not always repeated. Inconclusive results and toxic doses are left out.

This assay relates to P388 leukemia ip, CD2F1 mice, survival T/C. Description: NCI In Vivo Anticancer Drug Screen. Data for tumor model P388 Leukemia (intraperitoneal) in CD2F1 (CDF1) mice. The settings on record: endpoint: median survival time, higher = longer survival. In a few lines: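 Mice carrying the transplanted tumor received test compound or vehicle. Survival was recorded in each group, and the value is the treated-group measurement divided by that of the vehicle-treated control group.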

The mark [1] stands for this setting: dose: 25.0 mg/kg/injection, schedule: Q01DX005 (ip), vehicle: Klucel (hydroxypropylcellulose) (HPC).
The mark [2] stands for this setting: dose: 50.0 mg/kg/injection, schedule: Q01DX005 (ip), vehicle: Klucel (hydroxypropylcellulose) (HPC).
Setting [3] is: dose: 100.0 mg/kg/injection, schedule: Q01DX005 (ip), vehicle: Klucel (hydroxypropylcellulose) (HPC).
Where [4] appears, read: dose: 3.12 mg/kg/injection, schedule: Q01DX009 (ip), vehicle: saline.
Where [5] appears, read: dose: 6.25 mg/kg/injection, schedule: Q01DX009 (ip), vehicle: saline.
The mark [6] stands for this setting: dose: 12.5 mg/kg/injection, schedule: Q01DX009 (ip), vehicle: saline with Tween-80.
[7] abbreviates: dose: 12.5 mg/kg/injection, schedule: Q01DX009 (ip), vehicle: saline.
The mark [8] stands for this setting: dose: 60.0 mg/kg/injection, schedule: Q01DX005 (ip), vehicle: saline.
[9] abbreviates: dose: 200.0 mg/kg/injection, schedule: Q01DX005 (ip), vehicle: Klucel (hydroxypropylcellulose) (HPC).
Setting [10] is: dose: 50.0 mg/kg/injection, schedule: Q01DX005 (ip), vehicle: saline with Tween-80.
Where [11] appears, read: dose: 100.0 mg/kg/injection, schedule: Q01DX005 (ip), vehicle: saline with Tween-80.
Setting [12] is: dose: 25.0 mg/kg/injection, schedule: Q01DX009 (ip), vehicle: saline with Tween-80.
Setting [13] is: dose: 50.0 mg/kg/injection, schedule: Q01DX009 (ip), vehicle: saline with Tween-80.
The mark [14] stands for this setting: dose: 100.0 mg/kg/injection, schedule: Q01DX009 (ip), vehicle: saline with Tween-80.
Setting [15] is: dose: 200.0 mg/kg/injection, schedule: Q01DX009 (ip), vehicle: saline with Tween-80.
Setting [16] is: dose: 50.0 mg/kg/injection, schedule: Q01DX009 (ip), vehicle: Klucel (hydroxypropylcellulose) (HPC).
Where [17] appears, read: dose: 100.0 mg/kg/injection, schedule: Q01DX009 (ip), vehicle: Klucel (hydroxypropylcellulose) (HPC).

For `CC(=O)Nc1ccc(Cl)cc1C(Cl)c1ccccc1` (stereo not drawn), the T/C runs as follows: (dose: 12.5 mg/kg/injection, schedule: Q01DX005 (ip), vehicle: Klucel (hydroxypropylcellulose) (HPC)) 109 % of control; under setting [1], 118 % of control; under setting [2], 123 % of control and 124 % of control; under setting [3], 115 % of control.

As for `N#CC(O)Cc1ccccc1` (stereo not drawn), the T/C was 110 % of control (dose: 2.5 mg/kg/injection, schedule: Q04DX003 (ip), vehicle: other); 105 % of control (dose: 5.0 mg/kg/injection, schedule: Q04DX003 (ip), vehicle: other); 105 % of control (dose: 10.0 mg/kg/injection, schedule: Q04DX003 (ip), vehicle: other).

Consider `COc1cc2c(cc1OC)[C@@H](CO)[C@H]1c3cc4c(cc3CCN1C2)OCO4`, for which the T/C is, setting by setting: (dose: 50.0 mg/kg/injection, schedule: Q04DX003 (ip), vehicle: distilled water + Tween-80) 106 % of control and 115 % of control; (dose: 100.0 mg/kg/injection, schedule: Q04DX003 (ip), vehicle: distilled water + Tween-80) 100 % of control and 98 % of control; (dose: 200.0 mg/kg/injection, schedule: Q04DX003 (ip), vehicle: distilled water + Tween-80) 105 % of control and 120 % of control.

For the compound `CC(C(=O)O)C1(C(=O)O)CCCCCC1` (stereo not drawn), the T/C (dose: 100.0 mg/kg/injection, schedule: Q01DX001 (ip), vehicle: saline with Tween-80) was 100 % of control; the T/C (dose: 200.0 mg/kg/injection, schedule: Q01DX001 (ip), vehicle: saline with Tween-80) is 93 % of control; the T/C (dose: 400.0 mg/kg/injection, schedule: Q01DX001 (ip), vehicle: saline with Tween-80) was 109 % of control.

For the compound `O=C1NC(c2ccccc2)N=C2Oc3ccccc3C=C12` (stereo not drawn), the T/C is, setting by setting: under setting [4], 97 % of control; under setting [5], 97 % of control; under setting [6], 115 % of control; under setting [7], 106 % of control.

Take `O=C1CC2OC3C(C2O1)N(C(=O)OCc1ccccc1)C[C@H]3O` (stereo partly drawn): the T/C reads like this: under setting [8], 106 % of control; (dose: 120.0 mg/kg/injection, schedule: Q01DX005 (ip), vehicle: saline) 98 % of control; (dose: 240.0 mg/kg/injection, schedule: Q01DX005 (ip), vehicle: saline) 105 % of control.

Regarding `OCCN1CCN(c2c3ccccc3nc3ccccc23)CC1`, the T/C runs as follows: (dose: 25.0 mg/kg/injection, schedule: Q04DX003 (ip), vehicle: saline) 100 % of control; (dose: 50.0 mg/kg/injection, schedule: Q04DX003 (ip), vehicle: saline) 100 % of control.

Consider `CCCCCCC(C/C=C\CCCCCCCC(=O)OC)OC(C)=O` (stereo not drawn), for which the T/C is, setting by setting: (dose: 100.0 mg/kg/injection, schedule: Q04DX003 (ip), vehicle: saline with Tween-80) 95 % of control; (dose: 200.0 mg/kg/injection, schedule: Q04DX003 (ip), vehicle: saline with Tween-80) 100 % of control; (dose: 400.0 mg/kg/injection, schedule: Q04DX003 (ip), vehicle: saline with Tween-80) 104 % of control.

`NC(N)=NN=C(C1CC1)C1CC1`: the T/C was 100 % of control under setting [2], 98 % of control under setting [3] and 103 % of control under setting [9].

For the compound `C1=CC2(C=CCC1)OCCO2`, the T/C under setting [10] is 121 % of control.

As to `CCOC(=O)CNC(=O)NC(Cc1ccccc1)C(=O)OCC` (stereo not drawn), the T/C was 107 % of control under setting [10] and 97 % of control under setting [11].

For the compound `O=C(Nc1ccc(C(=O)Nc2ccc(C3=NCCCN3)cc2)cc1)Nc1ccc(C2=NCCCN2)cc1`, the T/C (dose: 6.25 mg/kg/injection, schedule: Q04DX003 (ip), vehicle: saline with Tween-80) was 108 % of control; the T/C under setting [6] is 204 % of control; the T/C under setting [12] is 122 % of control; the T/C (dose: 25.0 mg/kg/injection, schedule: Q04DX003 (ip), vehicle: saline with Tween-80) was 150 % of control; the T/C (dose: 100.0 mg/kg/injection, schedule: Q04DX003 (ip), vehicle: saline) is 90 % of control.

In the case of `O=C1c2cscc2C(=O)c2c(Cl)sc(Cl)c21`, the T/C under setting [12] is 95 % of control.

For `COc1ccc(C(=O)c2c(C(=O)NOCCCc3ccccc3)[nH]c(=O)c(C#N)c2C(=O)NOCCCc2ccccc2)cc1`, the T/C was 102 % of control (dose: 30.0 mg/kg/injection, schedule: Q01DX005 (ip), vehicle: saline with Tween-80); 105 % of control (dose: 60.0 mg/kg/injection, schedule: Q01DX005 (ip), vehicle: saline with Tween-80); 109 % of control under setting [8]; 96 % of control (dose: 120.0 mg/kg/injection, schedule: Q01DX005 (ip), vehicle: saline with Tween-80).

As for `CC(=O)c1ccc(N=NN(C)c2ccc(C(C)=O)cc2)cc1`, the T/C by setting is: under setting [13], 108 % of control; under setting [14], 107 % of control; under setting [15], 101 % of control.

In the case of `CNC(=O)N(CCO)/N=C\c1ccc([N+](=O)[O-])o1`, the T/C was 99 % of control under setting [2], 97 % of control under setting [3] and 103 % of control under setting [9].

With `COc1cccc2c1C(=O)c1c(O)c3c(c(O)c1C2=O)CC(O)(/C(C)=N/NS(=O)(=O)c1ccc(C)cc1)CC3OC1CC(N)C(O)C(C)O1` (stereo not drawn), the T/C is 118 % of control (dose: 0.78 mg/kg/injection, schedule: Q01DX009 (ip), vehicle: water); 113 % of control (dose: 1.56 mg/kg/injection, schedule: Q01DX009 (ip), vehicle: water); 153 % of control (dose: 12.5 mg/kg/injection, schedule: Q01DX009 (ip), vehicle: water); 179 % of control (dose: 25.0 mg/kg/injection, schedule: Q01DX009 (ip), vehicle: water).

On to `C[C@]12CCC(=O)C=C1CC[C@H]1[C@@H]3CC[C@](O)(C(=O)CF)[C@@]3(C)C[C@H](O)[C@@]12F`, for which the T/C under setting [4] is 105 % of control; the T/C under setting [5] is 102 % of control; the T/C under setting [7] was 118 % of control; the T/C (dose: 25.0 mg/kg/injection, schedule: Q01DX009 (ip), vehicle: saline) is 90 % of control.

For the compound `CNC(=O)OCc1ccc(NCCN(C)C)c2c(=O)c3cc(OS(=O)(=O)c4ccc(C)cc4)ccc3oc12`, the T/C by setting is: (dose: 25.0 mg/kg/injection, schedule: Q01DX005 (ip), vehicle: water) 90 % of control; (dose: 50.0 mg/kg/injection, schedule: Q01DX005 (ip), vehicle: water) 100 % of control; (dose: 100.0 mg/kg/injection, schedule: Q01DX005 (ip), vehicle: water) 102 % of control; (dose: 200.0 mg/kg/injection, schedule: Q01DX005 (ip), vehicle: water) 106 % of control.

On to `O=c1nc2c3[nH]cnc3ncn2o1`, for which the T/C runs as follows: (dose: 12.5 mg/kg/injection, schedule: Q01DX009 (ip), vehicle: Klucel (hydroxypropylcellulose) (HPC)) 101 % of control; (dose: 25.0 mg/kg/injection, schedule: Q01DX009 (ip), vehicle: Klucel (hydroxypropylcellulose) (HPC)) 106 % of control; under setting [16], 101 % of control and 93 % of control; under setting [17], 105 % of control.

On to `CCOC(=O)c1ccc(S(C)(=O)=O)cc1`, for which the T/C was 104 % of control under setting [12], 95 % of control under setting [13], 100 % of control under setting [14] and 100 % of control under setting [15].

Regarding `CCOC(=O)C(=CNc1ccccc1)C(=O)OCC`, the T/C is 103 % of control under setting [12], 100 % of control under setting [13], 103 % of control under setting [14] and 100 % of control under setting [15].

As to `CC1(C)CC(=O)C(CC(=O)c2ccccc2)=C(NNc2ccncc2)C1`, the T/C is 94 % of control under setting [16]; 95 % of control under setting [17]; 91 % of control (dose: 200.0 mg/kg/injection, schedule: Q01DX009 (ip), vehicle: Klucel (hydroxypropylcellulose) (HPC)).

For `COC(=O)C(C)NC(=O)C(CCSC)NC(=O)OC(C)(C)C` (stereo not drawn), the T/C by setting is: under setting [1], 98 % of control; under setting [2], 100 % of control and 102 % of control; under setting [3], 95 % of control; under setting [9], 104 % of control.

With `O=C(N=Nc1ccccc1)Nc1ccc(Cl)cc1`, the T/C by setting is: under setting [10], 100 % of control; under setting [11], 100 % of control; (dose: 200.0 mg/kg/injection, schedule: Q01DX005 (ip), vehicle: saline with Tween-80) 90 % of control.

Take `Clc1cccc(N=Cc2ccc(C=Nc3cccc(Cl)c3)cc2)c1`: the T/C is 94 % of control under setting [16] and 98 % of control under setting [17].
